In PubChem BioAssay AID2060627 (Molecular Pharmacology Branch, DTP, NCI, 2025):

Tested on: 156681-154-R-J1-PDC complex spheroid viability
Test: Anticancer human tumor 156681-154-R-J1-PDC patient-derived melanoma cell line growth inhibition [CLK]
Details: for viability, T/C: stronger effect = lower value
Description: A high-throughput screen of multi-cell type tumor spheroids was designed to identify active combinations of […] and targeted small molecules. Complex spheroids include a stromal component modeled by human endothelial cells (HUVEC) and fibroblasts modeled by human mesenchymal stem cells (MSCs). The concentration ranges selected for each drug and investigational agent were based upon clinically achievable concentrations if the clinical Cmax of the agent was known.
Compounds. The drugs and investigational agents: cirtuvivint (SM08502; NSC835563), CC-671 (NSC850746), vemurafenib (NSC761431), tapotoclax (NSC804041), sotorasib (NSC818433), adagrasib (NSC831453), MRTX-1133 (NSC836407), BAY2416964 (NSC825713), copanlisib (NSC816437), inavolisib (NSC800729), abemaciclib (NSC768073), osimertinib (NSC779217), entinostat (NSC756642), eltanexor (KPT-8602, NSC794443), venetoclax (NSC766270), ceralasertib (NSC777638), bortezomib (NSC756655), olaparib (NSC753686), talazoparib (NSC767125), alisertib (NSC759677), peposertib (NSC802822), gemcitabine (NSC613327), 5-fluorouracil (NSC19893), SN-38 (NSC673596), oxaliplatin (NSC266046), paclitaxel (NSC125973), and doxorubicin (NSC123127), were obtained from the National Cancer Institute (NCI) Developmental Therapeutics Program Chemical Repository. The FDA-approved anticancer drug set is available from the Developmental Therapeutics Program at https://dtp.cancer.gov/organization/dscb/obtaining/available plates.htm. […] The stock solutions were prepared in dimethyl sulfoxide (DMSO, Sigma-Aldrich, St. Louis, MO, cat. D2650), except for the platinum complexes which were prepared in saline (Quality Biological, Gaithersburg, MD, cat. 114-055-101), at 800-fold the tested concentration and stored at -70 degrees C prior to their use. All drugs and investigational agents were tested over a range starting from a high concentration at or near the clinical Cmax and decreasing in half-log increments. If the clinical Cmax for an agent had not been determined, the highest concentration tested was 10 microM.
Cell Culture. All cells were maintained in an incubator at 37 degrees C and 5% CO2 with 95% humidity. The PDC lines were cultured according to standard operating procedures established by the NCI PDMR. Briefly, all PDCs were thawed and cultured in Matrigel-coated flasks prepared with a working solution of 1X Ham's F-12 nutrient mix, without supplementation (Invitrogen, Waltham, MA, cat. 11765054), 100 U/mL penicillin-streptomycin (Invitrogen, cat. 15140122), and 2.5% Matrigel (Corning Inc., Corning, NY, cat. 354248) for the first three passages. The 947758-054-R-J2-PDC line was cultured in 6B/Colon 1A media, which includes advanced DMEM/F-12 (Thermo Fisher Scientific, cat. 12634028), 10 mM HEPES (Thermo Fisher Scientific, cat. 15630080), 1X GlutaMAX supplement (Thermo Fisher Scientific, cat. 35050061), 0.1 mg/mL primocin (InvivoGen, cat. ant-pm-2), 10% defined fetal bovine serum, heat inactivated (HyClone Laboratories Inc., cat. SH30070.03HI), 1.25 mM N-Acetyl-L-cysteine (Sigma-Aldrich, cat. A9165), 10 mM nicotinamide (Sigma-Aldrich, cat. N0636), 1X B-27 supplement (Thermo Fisher Scientific, cat. 17504044), 1X N-2 supplement (Thermo Fisher Scientific, cat. 17502048), and 10 microM Y-27632 dihydrochloride (Tocris Bioscience, cat. 1254). The 876862-298-R-J1-PDC was cultured in 6E media, which includes all 6B/Colon 1A media components plus 50% L-WRN conditioned media (ATCC, cat. CRL-3276), 50 ng/mL recombinant human EGF recombinant protein (hEGF; Thermo Fisher Scientific, cat. PHG0311), 10 ng/mL recombinant human fibroblast growth factor 10 (hGFG-10; PeproTech, cat. 100-26), 1 ng/mL recombinant human fibroblast growth factor 2 (hFGF-2; PeproTech, cat. 100-18B), and 1 µM prostaglandin E2 (PGE2; Tocris, cat. 2296). The 227483-062-R1-J1-PDC line was cultured in Panc media, containing all 6E components except hFGF-2, with the addition of 500 nM SB-431542 (Selleckchem, cat. S1067) and 10 nM gastrin (Tocris, cat. 3006). […]

[1] = curve of first compound, second compound 0.0316 µM
[2] = curve of first compound, second compound 0.1 µM
[3] = curve of first compound, second compound 0.316 µM
[4] = curve of first compound, second compound 1 µM
[5] = curve of first compound, second compound 3.16 µM
[6] = curve of first compound, second compound 10 µM
[7] = second compound 0.0316 µM, first compound 0.0316 µM
[8] = second compound 0.0316 µM, first compound 0.1 µM
[9] = second compound 0.0316 µM, first compound 0.316 µM
[10] = second compound 0.0316 µM, first compound 1 µM
[11] = second compound 0.0316 µM, first compound 3.16 µM
[12] = second compound 0.0316 µM, first compound 10 µM
[13] = second compound 0.1 µM, first compound 0.0316 µM
[14] = second compound 0.1 µM, first compound 0.1 µM
[15] = second compound 0.1 µM, first compound 0.316 µM
[16] = second compound 0.1 µM, first compound 1 µM
[17] = second compound 0.1 µM, first compound 3.16 µM
[18] = second compound 0.1 µM, first compound 10 µM
[19] = second compound 0.316 µM, first compound 0.0316 µM
[20] = second compound 0.316 µM, first compound 0.1 µM
[21] = second compound 0.316 µM, first compound 0.316 µM
[22] = second compound 0.316 µM, first compound 1 µM
[23] = second compound 0.316 µM, first compound 3.16 µM
[24] = second compound 0.316 µM, first compound 10 µM
[25] = second compound 1 µM, first compound 0.0316 µM
[26] = second compound 1 µM, first compound 0.1 µM
[27] = second compound 1 µM, first compound 0.316 µM
[28] = second compound 1 µM, first compound 1 µM
[29] = second compound 1 µM, first compound 3.16 µM
[30] = second compound 1 µM, first compound 10 µM
[31] = second compound 3.16 µM, first compound 0.0316 µM
[32] = second compound 3.16 µM, first compound 0.1 µM
[33] = second compound 3.16 µM, first compound 0.316 µM
[34] = second compound 3.16 µM, first compound 1 µM
[35] = second compound 3.16 µM, first compound 3.16 µM
[36] = second compound 3.16 µM, first compound 10 µM
[37] = second compound 10 µM, first compound 0.0316 µM
[38] = second compound 10 µM, first compound 0.1 µM
[39] = second compound 10 µM, first compound 0.316 µM
[40] = second compound 10 µM, first compound 1 µM
[41] = second compound 10 µM, first compound 3.16 µM
[42] = second compound 10 µM, first compound 10 µM
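Note: spheroids exposed to the agents for seven days.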
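Throughout, for viability, T/C: 100% = DMSO vehicle control viability.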

## CC1COCCN1c1cc(C2(S(C)(=N)=O)CC2)nc(-c2ccnc3[nH]ccc23)n1 (stereo not drawn) + CN1CCN(c2cc(C(=O)Nc3cc4cc(-c5cnn(C)c5)ccc4cn3)ccn2)CC1
[1]
  IC50: 1200 nM
[2]
  IC50: 1110 nM
[3]
  IC50: < 31.6 nM
[4]
  IC50: < 31.6 nM
[5]
  IC50: < 31.6 nM
[6]
  IC50: < 31.6 nM
[7]
  viability, T/C: 94.5%
[8]
  viability, T/C: 98.7%
[9]
  viability, T/C: 85%
[10]
  viability, T/C: 54%
[11]
  viability, T/C: 25.6%
[12]
  viability, T/C: 13%
[13]
  viability, T/C: 88.2%
[14]
  viability, T/C: 91.1%
[15]
  viability, T/C: 78.2%
[16]
  viability, T/C: 53.1%
[17]
  viability, T/C: 22.6%
[18]
  viability, T/C: 11.9%
[19]
  viability, T/C: 22.2%
[20]
  viability, T/C: 20.3%
[21]
  viability, T/C: 19.3%
[22]
  viability, T/C: 18.1%
[23]
  viability, T/C: 9.6%
[24]
  viability, T/C: 5.87%
[25]
  viability, T/C: 0.2%
[26]
  viability, T/C: 1.01%
[27]
  viability, T/C: 0.26%
[28]
  viability, T/C: 1.47%
[29]
  viability, T/C: 0.89%
[30]
  viability, T/C: 0.75%
[31]
  viability, T/C: 0.13%
[32]
  viability, T/C: 0.38%
[33]
  viability, T/C: 0.22%
[34]
  viability, T/C: 0.27%
[35]
  viability, T/C: 2.37%
[36]
  viability, T/C: 1.99%
[37]
  viability, T/C: 0.16%
[38]
  viability, T/C: 1.25%
[39]
  viability, T/C: 0.69%
[40]
  viability, T/C: 1.26%
[41]
  viability, T/C: 1.36%
[42]
  viability, T/C: 1.82%

## C=CC(=O)N1CCN(c2nc(=O)n(-c3c(C)ccnc3C(C)C)c3nc(-c4c(O)cccc4F)c(F)cc23)C(C)C1 (stereo not drawn) + CN1CCN(c2cc(C(=O)Nc3cc4cc(-c5cnn(C)c5)ccc4cn3)ccn2)CC1
[1]
  IC50: > 10000 nM
[2]
  IC50: > 10000 nM
[3]
  IC50: < 31.6 nM
[4]
  IC50: < 31.6 nM
[5]
  IC50: < 31.6 nM
[6]
  IC50: < 31.6 nM
[7]
  viability, T/C: 97.3%
[8]
  viability, T/C: 88%
[9]
  viability, T/C: 112%
[10]
  viability, T/C: 129%
[11]
  viability, T/C: 118%
[12]
  viability, T/C: 97.9%
[13]
  viability, T/C: 95.6%
[14]
  viability, T/C: 78.6%
[15]
  viability, T/C: 101%
[16]
  viability, T/C: 99.9%
[17]
  viability, T/C: 119%
[18]
  viability, T/C: 100%
[19]
  viability, T/C: 28.5%
[20]
  viability, T/C: 27.9%
[21]
  viability, T/C: 23.8%
[22]
  viability, T/C: 30%
[23]
  viability, T/C: 29.6%
[24]
  viability, T/C: 10.9%
[25]
  viability, T/C: 0.18%
[26]
  viability, T/C: 3.34%
[27]
  viability, T/C: 0.25%
[28]
  viability, T/C: 0.17%
[29]
  viability, T/C: 2%
[30]
  viability, T/C: 0.82%
[31]
  viability, T/C: 0.77%
[32]
  viability, T/C: 0.21%
[33]
  viability, T/C: 0.12%
[34]
  viability, T/C: 0.11%
[35]
  viability, T/C: 2.22%
[36]
  viability, T/C: 3.15%
[37]
  viability, T/C: 0.12%
[38]
  viability, T/C: 0.14%
[39]
  viability, T/C: 0.25%
[40]
  viability, T/C: 0.17%
[41]
  viability, T/C: 1.47%
[42]
  viability, T/C: 0.3%

## COc1c(OCCCN2CCOCC2)ccc2c3n(c(=NC(=O)c4cnc(N)nc4)nc12)CCN3 + CN1CCN(c2cc(C(=O)Nc3cc4cc(-c5cnn(C)c5)ccc4cn3)ccn2)CC1
[1]
  IC50: 16 nM
[2]
  IC50: 12.9 nM
[3]
  IC50: < 3.16 nM
[4]
  IC50: < 3.16 nM
[5]
  IC50: < 3.16 nM
[6]
  IC50: < 3.16 nM
Second compound 0.0316 µM, first compound 0.00316 µM
  viability, T/C: 76.1%
Second compound 0.0316 µM, first compound 0.01 µM
  viability, T/C: 58.8%
[7]
  viability, T/C: 36.8%
[8]
  viability, T/C: 12.7%
[9]
  viability, T/C: 2.94%
[10]
  viability, T/C: 0.44%
Second compound 0.1 µM, first compound 0.00316 µM
  viability, T/C: 76.2%
Second compound 0.1 µM, first compound 0.01 µM
  viability, T/C: 55.5%
[13]
  viability, T/C: 29.6%
[14]
  viability, T/C: 10.3%
[15]
  viability, T/C: 1.15%
[16]
  viability, T/C: 0.6%
Second compound 0.316 µM, first compound 0.00316 µM
  viability, T/C: 18.1%
Second compound 0.316 µM, first compound 0.01 µM
  viability, T/C: 15%
[19]
  viability, T/C: 6.26%
[20]
  viability, T/C: 2.42%
[21]
  viability, T/C: 1.79%
[22]
  viability, T/C: 0.42%
Second compound 1 µM, first compound 0.00316 µM
  viability, T/C: 0.13%
Second compound 1 µM, first compound 0.01 µM
  viability, T/C: 0.95%
[25]
  viability, T/C: 0.12%
[26]
  viability, T/C: 0.27%
[27]
  viability, T/C: 0.51%
[28]
  viability, T/C: 0.4%
Second compound 3.16 µM, first compound 0.00316 µM
  viability, T/C: 0.05%
Second compound 3.16 µM, first compound 0.01 µM
  viability, T/C: 0.16%
[31]
  viability, T/C: 0.12%
[32]
  viability, T/C: 1.29%
[33]
  viability, T/C: 1.19%
[34]
  viability, T/C: 2.81%
Second compound 10 µM, first compound 0.00316 µM
  viability, T/C: 0.04%
Second compound 10 µM, first compound 0.01 µM
  viability, T/C: 1.39%
[37]
  viability, T/C: 2.94%
[38]
  viability, T/C: 0.1%
[39]
  viability, T/C: 0.81%
[40]
  viability, T/C: 0.71%

## CN1CCN(c2cc(C(=O)Nc3cc4cc(-c5cnn(C)c5)ccc4cn3)ccn2)CC1
Compound 0.0316 µM
  viability, T/C: 102% [middle of 12 runs]
Compound 0.1 µM
  viability, T/C: 97.7% [middle of 12 runs]
Compound 0.316 µM
  viability, T/C: 24.3% [middle of 12 runs]
Compound 1 µM
  viability, T/C: 1.19% [middle of 12 runs]
Compound 3.16 µM
  viability, T/C: 0.58% [middle of 11 runs]
Compound 10 µM
  viability, T/C: 0.34% [middle of 10 runs]
Compound alone, run of 08/14/2023
  IC50: 212 nM [middle of 9 runs]
